Assay results reported in ChEMBL document CHEMBL5465560, “Selectivity Literature for EUbOPEN Chemogenomic Library” (2024).

Tests used:
[1] = target: Vascular endothelial growth factor receptor 1 (Homo sapiens) (UniProt P17948); assay: Selectivity interaction (KinomeScan (DiscoverX)) EUB0000666a FLT1; settings: at 10 µM
[2] = target: Tau-tubulin kinase 1 (Homo sapiens) (UniProt Q5TCY1); assay: Selectivity interaction (ProQinase) EUB0000171b TTBK1
[3] = target: T1, NUAK family SNF1-like kinase 2 (Homo sapiens) (UniProt Q9H093); assay: Selectivity interaction (KinomeScan (DiscoverX)) EUB0000595a NUAK2; settings: at 10 µM
T1 sequence (whole entry): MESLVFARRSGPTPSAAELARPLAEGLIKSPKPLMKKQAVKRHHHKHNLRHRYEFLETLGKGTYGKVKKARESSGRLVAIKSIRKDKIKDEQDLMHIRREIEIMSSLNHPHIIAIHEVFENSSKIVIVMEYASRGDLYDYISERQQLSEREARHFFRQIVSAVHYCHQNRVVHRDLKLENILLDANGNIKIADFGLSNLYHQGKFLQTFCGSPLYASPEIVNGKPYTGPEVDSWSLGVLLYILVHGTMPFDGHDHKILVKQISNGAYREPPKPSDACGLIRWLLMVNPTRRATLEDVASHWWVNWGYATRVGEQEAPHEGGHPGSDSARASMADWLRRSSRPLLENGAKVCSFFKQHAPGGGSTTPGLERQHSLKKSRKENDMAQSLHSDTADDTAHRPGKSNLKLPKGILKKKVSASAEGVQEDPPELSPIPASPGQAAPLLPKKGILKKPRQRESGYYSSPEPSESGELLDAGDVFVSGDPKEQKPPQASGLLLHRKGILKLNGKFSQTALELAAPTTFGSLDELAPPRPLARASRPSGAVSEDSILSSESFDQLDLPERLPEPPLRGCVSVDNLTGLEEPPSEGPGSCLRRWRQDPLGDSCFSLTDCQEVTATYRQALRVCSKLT

[4] = target: Proto-oncogene tyrosine-protein kinase receptor Ret (Homo sapiens, UniProt P07949); assay: (§1) Selectivity interaction (KinomeScan (DiscoverX)) EUB0000045b RET
[5] = tested on: Proto-oncogene tyrosine-protein kinase receptor Ret (Homo sapiens), P07949 [V804M]; assay: as §1
[6] = tested on: Proto-oncogene tyrosine-protein kinase receptor Ret (Homo sapiens), P07949 [V804L]; assay: as §1
[7] = tested on: Proto-oncogene tyrosine-protein kinase receptor Ret (Homo sapiens), P07949 [M918T]; assay: as §1
[8] = target: Rho-associated protein kinase 2 (Homo sapiens, UniProt O75116); assay: Selectivity interaction (KinomeScan (DiscoverX)) EUB0000045b ROCK2
[9] = tested on: Tyrosine-protein kinase ABL1 (Homo sapiens), P00519 [H396P]; assay: Selectivity interaction (KinomeScan (DiscoverX)) EUB0000045b ABL1; settings: at 10 µM
[10] = target: T2, Ephrin type-A receptor 3 (Homo sapiens) (UniProt P29320); assay: Selectivity interaction (KinomeScan (DiscoverX)) EUB0000045b EPHA3
T2 sequence (whole entry): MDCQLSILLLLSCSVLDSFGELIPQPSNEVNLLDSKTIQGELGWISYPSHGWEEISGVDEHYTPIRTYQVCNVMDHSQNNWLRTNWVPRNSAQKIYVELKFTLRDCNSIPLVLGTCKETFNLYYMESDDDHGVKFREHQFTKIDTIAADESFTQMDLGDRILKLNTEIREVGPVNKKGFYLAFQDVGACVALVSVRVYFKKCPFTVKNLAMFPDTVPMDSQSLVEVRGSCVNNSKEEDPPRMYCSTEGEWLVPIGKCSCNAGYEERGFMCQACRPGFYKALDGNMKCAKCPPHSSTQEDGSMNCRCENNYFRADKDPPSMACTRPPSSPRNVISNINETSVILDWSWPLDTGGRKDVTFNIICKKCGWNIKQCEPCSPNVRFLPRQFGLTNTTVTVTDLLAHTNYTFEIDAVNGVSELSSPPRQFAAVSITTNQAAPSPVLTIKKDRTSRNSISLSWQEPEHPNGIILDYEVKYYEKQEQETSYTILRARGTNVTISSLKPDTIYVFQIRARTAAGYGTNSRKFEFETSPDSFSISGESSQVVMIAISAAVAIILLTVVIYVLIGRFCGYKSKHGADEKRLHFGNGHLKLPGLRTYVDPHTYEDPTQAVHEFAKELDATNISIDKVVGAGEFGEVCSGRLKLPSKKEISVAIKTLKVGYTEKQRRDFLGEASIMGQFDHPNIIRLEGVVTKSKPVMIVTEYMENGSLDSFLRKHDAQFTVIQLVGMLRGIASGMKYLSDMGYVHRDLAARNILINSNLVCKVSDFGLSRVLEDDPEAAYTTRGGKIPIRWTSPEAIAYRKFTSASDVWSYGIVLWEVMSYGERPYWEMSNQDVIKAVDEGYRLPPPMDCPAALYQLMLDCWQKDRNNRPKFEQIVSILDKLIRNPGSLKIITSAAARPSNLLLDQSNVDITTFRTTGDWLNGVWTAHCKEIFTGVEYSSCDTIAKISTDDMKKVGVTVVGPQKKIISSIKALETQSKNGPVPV

[11] = target: SWI/SNF-related matrix-associated actin-dependent regulator of chromatin subfamily A member 4 (Homo sapiens) (UniProt P51532); assay: Selectivity interaction (Bromodomain panel (DSF asssay)) EUB0000270b SMARCA4
[12] = target: Receptor-interacting serine/threonine-protein kinase 2 (Homo sapiens, UniProt O43353); assay: Selectivity interaction (KinomeScan (DiscoverX)) EUB0000229b RIPK2; settings: at 10 µM
[13] = target: Serine/threonine-protein kinase SIK2 (Homo sapiens) (UniProt Q9H0K1); settings: at 10 µM
[14] = target: Serine/threonine-protein kinase B-raf (Homo sapiens) (UniProt P15056); settings: at 10 µM

Sequence of Rho-associated protein kinase 2 (O75116 whole entry, looked up): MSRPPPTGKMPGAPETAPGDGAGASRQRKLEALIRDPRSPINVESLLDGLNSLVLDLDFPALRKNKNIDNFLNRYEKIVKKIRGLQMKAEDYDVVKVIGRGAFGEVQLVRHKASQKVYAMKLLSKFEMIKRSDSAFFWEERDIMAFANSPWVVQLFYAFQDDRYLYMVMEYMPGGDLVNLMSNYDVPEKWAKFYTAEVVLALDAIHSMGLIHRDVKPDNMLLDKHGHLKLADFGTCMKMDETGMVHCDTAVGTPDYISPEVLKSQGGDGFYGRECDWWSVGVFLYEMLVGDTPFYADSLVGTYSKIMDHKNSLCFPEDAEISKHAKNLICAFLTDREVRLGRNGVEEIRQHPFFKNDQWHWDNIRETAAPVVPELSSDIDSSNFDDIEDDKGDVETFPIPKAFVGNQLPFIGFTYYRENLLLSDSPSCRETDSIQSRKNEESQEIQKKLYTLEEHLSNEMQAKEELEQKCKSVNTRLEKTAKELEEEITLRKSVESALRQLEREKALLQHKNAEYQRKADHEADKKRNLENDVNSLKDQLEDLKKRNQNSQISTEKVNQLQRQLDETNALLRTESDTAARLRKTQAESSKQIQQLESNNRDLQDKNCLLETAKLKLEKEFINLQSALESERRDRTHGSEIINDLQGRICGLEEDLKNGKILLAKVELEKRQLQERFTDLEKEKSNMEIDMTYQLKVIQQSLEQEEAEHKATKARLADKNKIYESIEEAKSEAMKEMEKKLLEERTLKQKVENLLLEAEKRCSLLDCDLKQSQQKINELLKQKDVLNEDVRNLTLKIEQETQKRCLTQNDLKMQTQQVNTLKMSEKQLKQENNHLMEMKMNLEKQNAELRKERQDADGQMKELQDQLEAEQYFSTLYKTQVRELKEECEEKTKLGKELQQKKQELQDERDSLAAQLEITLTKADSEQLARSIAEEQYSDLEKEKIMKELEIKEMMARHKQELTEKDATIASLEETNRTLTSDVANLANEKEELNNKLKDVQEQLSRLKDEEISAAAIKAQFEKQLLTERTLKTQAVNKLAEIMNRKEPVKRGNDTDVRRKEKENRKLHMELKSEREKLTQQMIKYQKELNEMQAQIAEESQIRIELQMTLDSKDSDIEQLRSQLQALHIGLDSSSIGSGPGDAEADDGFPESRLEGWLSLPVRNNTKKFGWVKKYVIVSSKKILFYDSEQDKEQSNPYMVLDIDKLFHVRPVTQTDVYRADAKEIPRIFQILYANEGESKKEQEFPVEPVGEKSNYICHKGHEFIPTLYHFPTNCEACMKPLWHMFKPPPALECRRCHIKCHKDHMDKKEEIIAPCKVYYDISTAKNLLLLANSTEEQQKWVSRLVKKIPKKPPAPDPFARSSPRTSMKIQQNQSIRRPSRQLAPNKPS
Sequence of Proto-oncogene tyrosine-protein kinase receptor Ret (Homo sapiens), P07949 [V804M] (P07949 whole entry V804M): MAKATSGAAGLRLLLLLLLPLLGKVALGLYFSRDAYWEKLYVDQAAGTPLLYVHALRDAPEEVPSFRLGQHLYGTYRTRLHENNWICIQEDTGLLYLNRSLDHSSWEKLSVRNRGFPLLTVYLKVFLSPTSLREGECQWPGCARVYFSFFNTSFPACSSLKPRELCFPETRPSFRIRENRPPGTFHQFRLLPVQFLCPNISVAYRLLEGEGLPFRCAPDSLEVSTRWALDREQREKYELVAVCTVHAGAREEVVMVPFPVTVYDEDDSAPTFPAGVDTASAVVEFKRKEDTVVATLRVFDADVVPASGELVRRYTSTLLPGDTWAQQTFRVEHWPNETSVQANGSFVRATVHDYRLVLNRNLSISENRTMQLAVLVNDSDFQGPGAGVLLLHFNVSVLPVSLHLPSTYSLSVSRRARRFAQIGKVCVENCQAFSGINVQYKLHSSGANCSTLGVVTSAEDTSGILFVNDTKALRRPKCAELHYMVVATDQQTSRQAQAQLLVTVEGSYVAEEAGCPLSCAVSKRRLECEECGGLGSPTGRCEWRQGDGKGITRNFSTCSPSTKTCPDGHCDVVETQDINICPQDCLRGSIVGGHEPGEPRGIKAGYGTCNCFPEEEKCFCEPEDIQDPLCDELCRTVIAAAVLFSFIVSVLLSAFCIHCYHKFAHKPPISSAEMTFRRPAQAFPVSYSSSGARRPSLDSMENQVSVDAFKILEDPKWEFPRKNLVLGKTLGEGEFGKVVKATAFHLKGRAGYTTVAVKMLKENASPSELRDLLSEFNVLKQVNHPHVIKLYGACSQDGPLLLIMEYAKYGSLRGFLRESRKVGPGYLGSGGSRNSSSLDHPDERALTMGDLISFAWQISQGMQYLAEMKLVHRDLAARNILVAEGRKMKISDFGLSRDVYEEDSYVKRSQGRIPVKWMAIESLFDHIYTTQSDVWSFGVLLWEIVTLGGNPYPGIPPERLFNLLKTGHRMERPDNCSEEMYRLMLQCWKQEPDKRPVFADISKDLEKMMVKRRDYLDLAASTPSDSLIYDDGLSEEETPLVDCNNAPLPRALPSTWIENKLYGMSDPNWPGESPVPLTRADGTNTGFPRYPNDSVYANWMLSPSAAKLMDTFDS
Sequence of Proto-oncogene tyrosine-protein kinase receptor Ret (Homo sapiens), P07949 [M918T] (P07949 whole entry M918T): as the sequence (P07949 whole entry V804M) above, with M804V, M918T counted along it
Sequence of Proto-oncogene tyrosine-protein kinase receptor Ret (Homo sapiens), P07949 [V804L] (P07949 whole entry V804L): as the sequence (P07949 whole entry V804M) above, with M804L counted along it
Sequence of Proto-oncogene tyrosine-protein kinase receptor Ret (P07949 whole entry): as the sequence (P07949 whole entry V804M) above, with M804V counted along it
Sequence of Tau-tubulin kinase 1 (Homo sapiens) (Q5TCY1 whole entry): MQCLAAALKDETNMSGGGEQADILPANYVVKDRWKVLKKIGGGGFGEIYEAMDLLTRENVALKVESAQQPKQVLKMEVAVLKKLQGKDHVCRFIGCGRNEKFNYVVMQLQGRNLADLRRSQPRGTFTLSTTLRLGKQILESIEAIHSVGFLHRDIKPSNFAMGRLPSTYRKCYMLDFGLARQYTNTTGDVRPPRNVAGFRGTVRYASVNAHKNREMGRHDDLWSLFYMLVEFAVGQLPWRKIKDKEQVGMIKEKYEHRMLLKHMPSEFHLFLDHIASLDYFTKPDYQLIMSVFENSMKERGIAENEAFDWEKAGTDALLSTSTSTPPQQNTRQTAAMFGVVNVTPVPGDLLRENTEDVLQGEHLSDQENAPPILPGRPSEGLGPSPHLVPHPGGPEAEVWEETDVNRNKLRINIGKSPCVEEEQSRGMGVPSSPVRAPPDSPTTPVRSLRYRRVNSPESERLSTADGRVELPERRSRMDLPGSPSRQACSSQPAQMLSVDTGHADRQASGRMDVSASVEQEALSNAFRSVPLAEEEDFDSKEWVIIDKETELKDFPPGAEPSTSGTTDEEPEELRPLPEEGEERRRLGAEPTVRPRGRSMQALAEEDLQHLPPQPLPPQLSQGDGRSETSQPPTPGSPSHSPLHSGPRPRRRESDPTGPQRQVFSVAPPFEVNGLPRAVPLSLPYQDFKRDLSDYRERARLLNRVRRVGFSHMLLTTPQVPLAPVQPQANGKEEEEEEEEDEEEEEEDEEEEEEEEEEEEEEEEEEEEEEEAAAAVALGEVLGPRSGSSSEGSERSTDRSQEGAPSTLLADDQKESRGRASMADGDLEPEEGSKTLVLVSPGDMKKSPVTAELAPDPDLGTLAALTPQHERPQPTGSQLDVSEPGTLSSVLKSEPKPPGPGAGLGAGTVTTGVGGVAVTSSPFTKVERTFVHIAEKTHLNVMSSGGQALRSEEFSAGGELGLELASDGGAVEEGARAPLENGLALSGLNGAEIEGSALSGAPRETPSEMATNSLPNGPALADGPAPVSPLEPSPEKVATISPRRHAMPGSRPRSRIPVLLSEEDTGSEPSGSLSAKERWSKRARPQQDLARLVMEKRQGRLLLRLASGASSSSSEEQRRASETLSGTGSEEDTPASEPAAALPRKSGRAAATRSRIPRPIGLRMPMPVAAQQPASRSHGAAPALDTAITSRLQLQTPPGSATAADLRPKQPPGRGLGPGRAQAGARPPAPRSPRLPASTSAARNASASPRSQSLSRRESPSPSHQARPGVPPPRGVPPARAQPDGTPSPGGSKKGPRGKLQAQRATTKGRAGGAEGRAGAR
Sequence of Serine/threonine-protein kinase SIK2 (Homo sapiens) (Q9H0K1 whole entry, looked up): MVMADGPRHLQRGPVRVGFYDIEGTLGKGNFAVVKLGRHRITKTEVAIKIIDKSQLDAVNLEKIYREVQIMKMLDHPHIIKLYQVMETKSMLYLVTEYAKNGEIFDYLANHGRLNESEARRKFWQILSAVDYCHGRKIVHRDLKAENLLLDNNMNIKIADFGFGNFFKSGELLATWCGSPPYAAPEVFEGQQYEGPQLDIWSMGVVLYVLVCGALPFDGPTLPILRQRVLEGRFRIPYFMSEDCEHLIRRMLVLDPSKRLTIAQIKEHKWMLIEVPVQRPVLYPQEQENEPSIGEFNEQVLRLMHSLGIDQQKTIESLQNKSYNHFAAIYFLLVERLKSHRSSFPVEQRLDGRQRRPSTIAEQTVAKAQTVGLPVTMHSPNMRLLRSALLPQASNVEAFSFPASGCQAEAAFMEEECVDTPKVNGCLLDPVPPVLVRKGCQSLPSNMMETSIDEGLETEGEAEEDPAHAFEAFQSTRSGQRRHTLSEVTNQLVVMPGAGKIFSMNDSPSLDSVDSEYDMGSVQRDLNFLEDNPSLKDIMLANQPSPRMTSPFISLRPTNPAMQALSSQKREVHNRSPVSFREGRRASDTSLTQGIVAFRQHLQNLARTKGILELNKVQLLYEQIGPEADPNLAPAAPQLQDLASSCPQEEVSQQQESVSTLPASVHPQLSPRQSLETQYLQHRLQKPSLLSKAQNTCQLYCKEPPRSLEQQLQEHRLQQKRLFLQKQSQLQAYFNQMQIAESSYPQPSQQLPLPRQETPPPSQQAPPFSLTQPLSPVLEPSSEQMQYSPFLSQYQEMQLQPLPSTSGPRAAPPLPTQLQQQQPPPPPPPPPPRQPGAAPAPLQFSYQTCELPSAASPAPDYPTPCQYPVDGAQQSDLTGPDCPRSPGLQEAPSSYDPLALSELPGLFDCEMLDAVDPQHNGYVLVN

O=C(NOC[C@H](O)CO)c1ccc(F)c(F)c1Nc1ccc(I)cc1F
% of control [1]: 94%

C=CC(=O)Nc1cccc(C(=O)Nc2ccc(Nc3cc(-c4[nH]c(SC)nc4C)ccn3)cc2)c1
% of control ([2]; at 1 µM): 102%
% of control ([2]; at 5 µM): 106%

COCC(=O)NC/C=C/c1ccc2ncnc(Nc3ccc(Oc4ccc(C)nc4)c(C)c3)c2c1 [CP-724714]
% of control [3]: 100%

C=CC(=O)Nc1cc(-n2c(=O)ccc3cnc4ccc(-c5ccc(NS(C)(=O)=O)cc5)cc4c32)ccc1C
% of control ([4]; at 1 µM): 88%
% of control ([4]; at 10 µM): 96%
% of control ([5]; at 1 µM): 85%
% of control ([5]; at 10 µM): 100%
% of control ([6]; at 1 µM): 79%
% of control ([6]; at 10 µM): 100%
% of control ([7]; at 1 µM): 11%
% of control ([7]; at 10 µM): 74%
% of control ([8]; at 1 µM): 87%
% of control ([8]; at 10 µM): 79%
% of control [9]: 44%
% of control ([10]; at 1 µM): 89%
% of control ([10]; at 10 µM): 92%

Cc1cc(CN)cc(C)c1-c1ncn(C)c1-c1cncn1C
dTM [11]: -1.35 K

COc1cc(N(C)c2ccnc3ccc(C(F)(F)F)cc23)cc(OC)c1OC
% binding [12]: 58%

Cc1cc([C@@H](C)Nc2ccccc2C(=O)O)c2nc(N3CCOCC3)cc(=O)n2c1 [AZD-6482]
% of control [13]: 100%
% of control [14]: 100%
